Experimental data taken from BindingDB's records for doi:10.1074/jbc.M608182200 (Johnson & Johnson Pharmaceutical, 2007).

Key:
Assay in all cases: cFMs Autophosphorylation Fluorescence Polarization End Point Assay.
Settings in all cases: pH 7.5; 22 °C
[1] = molecular target: T1, Macrophage colony-stimulating factor 1 receptor [538-972] (UniProt P07333)
T1 construct: 538-972
T1 sequence (P07333 whole entry): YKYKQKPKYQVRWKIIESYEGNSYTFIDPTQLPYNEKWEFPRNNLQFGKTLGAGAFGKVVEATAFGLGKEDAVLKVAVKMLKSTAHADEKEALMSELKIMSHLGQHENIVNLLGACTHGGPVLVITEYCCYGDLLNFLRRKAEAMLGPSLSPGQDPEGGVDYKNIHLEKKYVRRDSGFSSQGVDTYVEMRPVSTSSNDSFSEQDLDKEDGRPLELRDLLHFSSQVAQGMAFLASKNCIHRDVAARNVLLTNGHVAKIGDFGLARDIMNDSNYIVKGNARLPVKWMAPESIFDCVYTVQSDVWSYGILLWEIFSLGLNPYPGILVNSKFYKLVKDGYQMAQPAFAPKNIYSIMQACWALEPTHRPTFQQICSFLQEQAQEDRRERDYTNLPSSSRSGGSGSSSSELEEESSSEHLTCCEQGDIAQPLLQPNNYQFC
Description: (§1) Control reactions were run in each plate. Assay buffer was substituted for the compound in positive and negative control wells. The fluorescence polarization was measured after 30 min of incubation. […] The IC50 values reported are the averages of three independent measurements.

[2] = molecular target: T2, Macrophage colony-stimulating factor 1 receptor [538-678,753-922] (Homo sapiens, UniProt P07333)
T2 construct: 538-678,753-922
T2 sequence (P07333 whole entry): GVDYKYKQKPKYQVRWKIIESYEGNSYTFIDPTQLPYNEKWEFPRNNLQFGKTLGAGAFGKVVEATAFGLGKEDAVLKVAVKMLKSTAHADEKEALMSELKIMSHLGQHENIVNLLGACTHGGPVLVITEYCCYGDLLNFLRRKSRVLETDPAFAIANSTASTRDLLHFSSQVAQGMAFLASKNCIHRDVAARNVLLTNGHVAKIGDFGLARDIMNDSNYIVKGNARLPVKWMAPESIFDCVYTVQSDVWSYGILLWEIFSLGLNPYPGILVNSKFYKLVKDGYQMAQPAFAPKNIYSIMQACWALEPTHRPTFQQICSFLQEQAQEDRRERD
Description: as §1

[3] = molecular target: T3, Macrophage colony-stimulating factor 1 receptor [538-678,753-922] (Homo sapiens, UniProt P07333); remark: listed apart in the source
T3 construct: 538-678,753-922
T3 sequence (P07333 whole entry): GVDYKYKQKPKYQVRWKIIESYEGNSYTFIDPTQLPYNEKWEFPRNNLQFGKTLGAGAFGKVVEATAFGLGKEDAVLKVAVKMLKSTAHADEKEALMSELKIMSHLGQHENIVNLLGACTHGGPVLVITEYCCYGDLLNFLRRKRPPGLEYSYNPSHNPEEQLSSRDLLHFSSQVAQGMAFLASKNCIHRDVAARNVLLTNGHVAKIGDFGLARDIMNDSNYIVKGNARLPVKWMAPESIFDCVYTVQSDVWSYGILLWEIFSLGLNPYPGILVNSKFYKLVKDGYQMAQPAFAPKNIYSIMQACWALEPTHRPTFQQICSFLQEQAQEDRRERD
Description: as §1

| IC50 [1] | IC50 [2] | IC50 [3] | Compound |
| --- | --- | --- | --- |
| 1.2 µM | 1.3 µM | 1.2 µM | CN(C)CCNC(=O)N1CCN(Cc2cc(C(F)(F)F)cc(C(F)(F)F)c2)CC1 [JNJ31117164] |
| 10 µM | 8.3 µM | 9.4 µM | Cc1cc2ncc(-c3ccc(O)c(O)c3)nc2cc1C [2-(3,4-Dihydroxyphenyl)-6,7-dimethylquinoxaline] |
| 4.8 µM | 4.5 µM | 4.2 µM | O=Nc1c(C2C(=O)Nc3ccccc32)[nH]c2ccccc12 (configuration not stated) [Indirubin-3 -monoxime] |

| Compound | IC50 [1] | IC50 [2] | IC50 [3] |
| --- | --- | --- | --- |
| N#C/C(=C\c1ccc(O)c(O)c1)C(N)=S [alpha-Cyano-(3,4-dihydroxy)thiocinnamide] | 2.9 µM | 3.3 µM | 3 µM |
